Results from a melting point compilation (Tetko et al.; mined from patent text by program, amines drawn as free bases though some values may be those of a salt).

Row | SMILES | melting point [°C]
1 | CCCCn1c(=O)c(C(=O)OCC)c(N2CCN(C(=O)c3cccs3)CC2)c2cccnc21 | 90 to 96
2 | FC(F)(F)c1cccc(NC2CCN(c3ccc(Cl)nn3)CC2)c1 | 118
3 | CC(C)CC12CCC3C4CCC(=O)C=C4CCC3C1CCC2O (configuration not stated) | 124 to 126
4 | CCN(CC)CCOc1ccc(Nc2nccc(-c3cccnc3)n2)cc1 | 87 to 89
5 | CC1(C)NC(=O)c2cc(C#N)ccc2O1 | 127 to 129
6 | O=c1cc(CNCc2ccccc2)c2ccc(OCc3cccc(Cl)c3)cc2o1 | 133 to 135
7 | Cc1cccc(OC2CCOC2=O)c1[N+](=O)[O-] (configuration not stated) | 82 to 84
8 | FCc1cc(Cl)n2nc(SCc3ccccc3)nc2n1 | 81 to 86
9 | O=c1cc(-c2ccccc2)oc(=O)[nH]1 | > 210
10 | Cc1cccc(C)c1NCCNCC(O)COc1cccc2[nH]c3ccccc3c12 (configuration not stated) | 162 to 163
11 | CCCCCCCCCCCCc1ccccc1C(Sc1ncc(C(=O)O)n1C)C(O)CCC(=O)O (configuration not stated) | 79 to 80
12 | CCOC(=O)C(=O)Nc1cccc(NC(=O)C(=O)OCC)c1Cl | 162
13 | CCc1cc(=O)n(-c2cc(C(=O)OC(C)C)c(Cl)cc2F)c(=O)[nH]1 | 121 to 124
14 | Cc1cc(-c2cccc(N)n2)c(C)cc1OCCN1CCN(CCc2ccccc2)CC1 | > 220
15 | COc1c2c(c(OC)c(OC)c1OC)CCC(CCOc1cccnc1)CC2 | 111 to 113
16 | O=C(O)CC1Sc2ccc([N+](=O)[O-])cc2CN(CCc2ccccc2)C1=O (configuration not stated) | 210 to 214
17 | CCCCCCCCCCCCCC(=O)NC1CC(C)(C)N(CC#N)C(C)(C)C1 | 106
18 | COC(=O)CC(O)CP(=O)(C#Cc1c(-c2ccc(F)cc2)c2n(c1C(C)C)CCCC2)OC (configuration not stated) | 145 to 146
19 | NCc1cccc(C2CCN(c3cc4c(cc3F)c(=O)c(C(=O)O)cn4C3CC3)C2)c1 (configuration not stated) | 250 to 253
20 | Cc1nc(Sc2ccc(N)cc2)nc(C)c1Cl | 160 to 161
21 | COc1cc(C=C(Br)Br)ccc1OC(C)C | 36 to 38
22 | N#CCS(=O)(=O)CC(=O)O | 104 to 105

Row | SMILES | melting point [°C]
23 | N#Cc1cccnc1NCc1nc2ccc(F)cc2c(=O)n1-c1ccccc1Cl | 145 to 150
24 | COc1ccc(OC2CN(S(=O)(=O)c3ccc(C)cc3)CCc3ccccc32)cc1 (configuration not stated) | 84 to 85
25 | O=C1C=c2c(c3c4ccccc4[nH]c3c3[nH]c4ccccc4c23)=N1 | > 320
26 | CN(C)C(=O)c1ccc(C(N)=O)cc1S(N)(=O)=O | 202 to 205
27 | CC(C)c1nsc2c1C(=O)N(C(C)(C)C)C2=O | 52 to 53
28 | COc1ccc(-c2nc(Sc3ccc(C(C)(C)C)cc3)[nH]c2-c2ccc(OC)cc2)cc1 | 172 to 174
29 | COc1ccc(C2CCN(c3c(C)c(C)c4c(c3C)C(c3ccccc3)C(C)(C)O4)CC2)cc1OC (configuration not stated) | 118 to 120
30 | CCN(CC)C(=O)CCCCCN1CCC(NC(=O)c2cnc3c(OC)cccc3c2Nc2ccc(C(=O)NC3CCN(Cc4ccccc4)CC3)cc2)CC1 | 115 to 120
31 | CCn1cc(C(=O)O)c(=O)c2cc(F)c(N3CCC(N)C3)c(F)c21 (configuration not stated) | 240 to 242
32 | CC1(C)CC2(CC(C)(C)N1)NC(=O)N(CC(O)COc1ccc(Cc3ccc(OCC(O)CN4C(=O)NC5(CC(C)(C)NC(C)(C)C5)C4=O)cc3)cc1)C2=O (configuration not stated) | 113 to 118
33 | Brc1ccc2c(c1)CCOC2CCN1CCN(c2ccc(OCc3ccccc3)cc2)CC1 (configuration not stated) | 87 to 90
34 | COc1cc(COc2nn(-c3ccccc3)cc2Cn2cncn2)ccc1OCc1nc(-c2ccco2)oc1C | 149 to 150
35 | CN(C)Cc1cc(C(=O)c2sccc2Cl)cc(C(C)(C)C)c1O | 131 to 132
36 | Nc1ccc2snc(-c3sccc3Cl)c2c1 | 128 to 132
37 | O=C(c1ccccc1)N1CCc2[nH]c3cccc(-c4ccccc4)c3c2CC1 | 223 to 226
38 | C=CC1CCC2C3CCC4=CC(=O)CCC4(C)C3CCC12C (configuration not stated) | 122 to 124
39 | CC(C)CNC(=O)c1ccc(C2CC2c2ccc(Cl)cc2)cc1 (configuration not stated) | 110
40 | O=Cc1cccc(-c2ccco2)n1 | 46 to 48
41 | O=C(O)COc1cc(F)c(F)cc1C(=S)NCc1ccc(Br)cc1F | 206 to 209
42 | C#CCOc1ccc(Cc2nnc(Cl)c3ccccc23)cc1 | 129 to 131
43 | N#CC1=C(C#N)Sc2nc3ccccc3nc2S1 | > 300
44 | O=c1cc(C(F)(F)F)cnn1-c1cc(Oc2ncccn2)c(Cl)cc1F | 156 to 160

Row | SMILES | melting point [°C]
45 | CON1CCC2(CC1)OC(=O)C(c1cc(C)ccc1C)=C2O | 205 to 208
46 | COc1ccc2[nH]c(-c3cc(C)c(O)c(C)c3)c(C)c2c1 | 158 to 159
47 | CN1C(=O)N(CC(COc2ccc(-c3ccc(Cl)cc3)cc2)N(O)C=O)C(=O)C1(C)C (configuration not stated) | 124 to 125
48 | CC(C)(C)c1ccc(C(=O)Nc2ccc(OCCO)cc2)cc1 | 136 to 142
49 | O=c1[nH]c2ccc(-c3cccc([N+](=O)[O-])c3)cc2[nH]1 | 324 to 325
50 | N#Cc1cccnc1N1CCN(CCCCc2ccc(-c3csc(N)n3)cc2)CC1 | 155 to 162
51 | CCCSc1ncc(C(=O)N[C@@H](Cc2ccc(O)cc2)C(=O)OC)n1Cc1ccccc1Cl | 180 to 182
52 | COC(=O)ON(C(N)=O)C(C)c1cc2ccccc2s1 (configuration not stated) | 124 to 125
53 | O=C1c2cc(Cl)ccc2OCC1n1ccnc1 (configuration not stated) | 123 to 125
54 | CNC(=O)Nc1cccc(C(=O)Nc2ccccn2)c1 | 163 to 164
55 | COc1ccc(C(=O)Nc2cccc(C(C)(C)CNC(C)=O)c2)cc1OC | 132 to 134
56 | CCCN(c1ccncc1)n1ccc2cc(OC(=O)NCc3ccccc3)ccc21 | 156 to 158
57 | CCOC(=O)Oc1ccc(C(=O)Oc2ccc(C#N)cc2)cc1 | 145
58 | COC(=O)Cc1ccc2oc(=S)[nH]c2c1 | 120 to 122
59 | O=C(c1ccc(Cl)c([N+](=O)[O-])c1)c1ccc(Cl)c([N+](=O)[O-])c1 | 131 to 132
60 | COc1cc(C)c(NS(C)(=O)=O)cc1C(=O)NCC1CCCO1 (configuration not stated) | 207 to 208
61 | c1ccc2c(c1)CCc1c(CN3CCN(c4cc5ccccc5cn4)CC3)n[nH]c1-2 | 228 to 230
62 | N#Cc1ccc2nc3cscc3c(=O)n2c1 | 233 to 234
63 | CC(C)(C)c1ccc(CBr)cc1NC(=O)CC1c2ccccc2Oc2ccccc21 | 229 to 231
64 | O=C(C=Cc1ccc(C(=O)O)cn1)NCCCCN1CCN(C(c2ccccc2)c2ccccc2)CC1 | 214 to 216

The remaining lines, values ahead:

Row | melting point [°C] | SMILES
65 | 224 to 226 | CC(=O)c1c(C)c2cnc(Nc3ccc(N4CCOCC4)nc3)nc2n(C2CCCC2)c1=O
66 | 270 to 275 | COC(=O)c1ccc(NC(=O)C(CC2CCCC2)c2ccc(F)c(C(F)(F)F)c2)nc1 (configuration not stated)
67 | 313 to 315 | Cc1ccc2c(=O)n(C3CCC(=O)NC3=O)cnc2c1 (configuration not stated)
68 | 142 | O=C1c2ccccc2C(=O)N1Cc1ccccc1-c1noc2ccccc12
69 | 106 to 109 | Cc1cc(Nc2ccc(S(F)(F)(F)(F)F)cc2)c(S(C)(=O)=O)cc1C(=O)O
70 | 158 to 160 | N#Cc1c[nH]c(-c2ccccc2F)c1
71 | 263 to 266 | O=C(O)c1cccc2cc(Oc3c(Cl)cc(NS(=O)(=O)c4ccc(Cl)cc4Cl)cc3Cl)cnc12
72 | 81 | CCCCCCCCCCCCCCCC(O)C(N)CO (configuration not stated)
73 | 234 to 236 | COc1c(-c2ccccc2)csc1-c1cnn2c(O)ccnc12
74 | 88 to 91 | Nc1cccc2c1CC(O)CC2 (configuration not stated)
75 | 135 to 136 | COc1cc(CP(=O)(OC)OC)c2c(CP(=O)(OC)OC)cc(OC)cc2c1
76 | 166 to 168 | O=C(O)Cc1ccc2c(c1)-c1ccccc1C2
77 | 228 to 230 | Cc1cc(CC(C)(C)NCC(O)c2cc(OCc3ccccc3)cc3c2OCC(=O)N3)ccc1F (configuration not stated)
78 | 80 to 82 | C=CCOc1ccccc1/C=C\C(=O)O
79 | 118 to 120 | Cc1c(OCc2ccc(F)cc2F)cc(C)n(C2CCCCC2)c1=O
80 | 128 to 130 | Cc1cccc2c1CN(S(C)(=O)=O)CCS2
81 | 166 to 168 | COc1ccc(S(=O)(=O)N2CCc3cccc(-c4ccccc4)c32)cc1
82 | 206 to 207 | OCc1c[nH]c(=S)n1[C@H]1CCc2c(F)cc(F)cc2C1
83 | 75 to 77 | O=C1c2ccccc2C(=O)N1CCCCn1ccnc1

Row | melting point [°C] | SMILES
84 | 211 to 212 | CCS(=O)(=O)c1cccnc1S(N)(=O)=O
85 | 142 to 144 | Cc1ccc(C2Sc3cc(C)ccc3NC(=O)C2=O)cc1 (configuration not stated)
86 | 170 to 172 | Cc1[nH]c2ccc(F)cc2c1CCC(=O)N1CCN(c2ccccc2)CC1
87 | 103 to 106 | CC(C)(C)OC(=O)Nc1ccc(Cl)c(O)c1
88 | 142 to 144 | O=C1N=NC(Cc2ccc(OCCc3coc(-c4ccccc4)n3)cc2)O1 (configuration not stated)
89 | 268 to 270 | CC1(CN)CN(c2c(F)cc3c(=O)c(C(=O)O)cn(C4CC4)c3c2F)C1
90 | 138 | N#Cc1cc(N)ccc1N1CCC(N2CCSCC2)CC1
91 | 165 | Cc1ccc(Cn2c(NC3CCN(CC(O)COc4ccccc4)CC3)nc3ccccc32)o1 (configuration not stated)
92 | 120 to 125 | CCC(=NOC)c1ccc(=O)[nH]c1CC
93 | 186 to 189 | CN1CCN(c2ccccc2C=C2CCN(c3ccc(C(F)(F)F)cc3)C2=O)CC1
94 | 91 to 92 | CCS(=O)(=O)N(Cc1cccnc1)c1ccc(F)cc1F
95 | 65 | O=C1C=C(CC2CCCC(C(F)(F)F)C2)C(=O)c2ccccc21 (configuration not stated)
96 | > 300 | Nc1c(Cl)cc2nc(O)c(O)nc2c1N
97 | 102 to 103 | COc1nc(Cl)cnc1N
98 | 151 to 152 | CC(=O)c1ccc(NS(C)(=O)=O)c(S(=O)c2ccc(F)cc2F)c1 (configuration not stated)
99 | 128 to 131 | CNC(Cc1ccccc1N)C(=O)c1ccc(OC)c(OC)c1 (configuration not stated)
100 | 79 to 81 | CCC(=O)Nc1c([N+](=O)[O-])cnn1-c1ccc(Cl)c(Cl)c1Cl
101 | 169 to 171 | CC(C)[C@H](NC(=O)OCc1ccccn1)C(=O)N[C@@H](Cc1ccccc1)[C@@H](O)C[C@H](Cc1ccccc1)NC(=O)OCc1cccnc1
102 | 115 to 117 | COc1cc(C(F)(F)F)cnc1O
